In US12195427B2, “MASP-2 inhibitors and methods of use” (priority 2018, dated 2025):
Counter-ions that a name gives are not always drawn.

Biological target: MASP-2 CCP2-SP (Homo sapiens (Human), UniProt O00187)
Experiment: MASP-2 co-crystallization, X-ray crystallography and structure analysis (H-bonds, van der Waals contacts);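 for Ligand-pharmacophore element distance, pharmacophore element C2: distance from averaged pharmacophore element to bound ligand; missing value means element absent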;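 for Ligand-pharmacophore element distance, pharmacophore element C3: distance from averaged pharmacophore element to bound ligand; missing value means element absent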;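 for Ligand-pharmacophore element distance, pharmacophore element C4: distance from averaged pharmacophore element to bound ligand; missing value means element absent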;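 for Ligand-pharmacophore element distance, pharmacophore element C5: distance from averaged pharmacophore element to bound ligand; missing value means element absent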
Parameters: van der Waals contact distance, MASP-2 HIS 483 atom CD2 / van der Waals contact distance, MASP-2 HIS 483 atom NE2 / van der Waals contact distance, SER 654 C to compound atom / van der Waals contact distance, SER 654 O to compound atom / van der Waals contact distance, TRP 655 C to compound atom / van der Waals contact distance, MASP-2 GLY 528 atom CA / van der Waals contact distance TRP 655 atom CZ3 / van der Waals contact distance TRP 655 atom N / van der Waals contact distance TRP 655 atom CE3 / van der Waals contact distance GLY 656 atom C / van der Waals contact distance GLY 656 atom CA / van der Waals contact distance GLY 656 atom O / van der Waals contact distance, MASP-2 TYR 607 atom CD1 / van der Waals contact distance, MASP-2 PRO 606 atom O / d(C3,CA1) / d(CA1,N1)2 / d(H4,O1) / d(H4,O2) / d(O1,O2) / d(CA1,O2) / d(CA6,O1) / d(CA6,O2) / d(CA1,C5) / d(O2,H3) / d(N2,C2) / d(CA5,N2) / d(N2,C4) / d(N2,C6) / d(N2,CA3) / d(N2,O3) / d(O4,H2): unit not given beside the values
Conditions: for H-bond distance to MASP-2 ASP 627 atom OD2: ASP 627 OD2; for H-bond distance to MASP-2 GLY 656 atom N: GLY 656 N; for H-bond distance to MASP-2 SER 628 atom O: SER 628 O; for H-bond distance to MASP-2 SER 654 atom O: SER 654 O; for H-bond distance to MASP-2 SER 657 atom O: SER 657 O; for van der Waals contact distance, MASP-2 HIS 483 atom CD2 / van der Waals contact distance, MASP-2 HIS 483 atom NE2: Table A2-1; for van der Waals contact distance TRP 655 atom CE3: MASP-2 TRP 655 CE3, compound atom in line below; for van der Waals contact distance TRP 655 atom CZ3: MASP-2 TRP 655 CZ3; for Ligand-pharmacophore element distance, pharmacophore element C2 / Ligand-pharmacophore element distance, pharmacophore element C3 / Ligand-pharmacophore element distance, pharmacophore element C4 / Ligand-pharmacophore element distance, pharmacophore element C5 / Ligand-pharmacophore element distance, pharmacophore element C6 / Ligand-pharmacophore element distance, pharmacophore element C7 / Ligand-pharmacophore element distance, pharmacophore element CA1 / Ligand-pharmacophore element distance, pharmacophore element CA2 / Ligand-pharmacophore element distance, pharmacophore element CA3 / Ligand-pharmacophore element distance, pharmacophore element CA4 / Ligand-pharmacophore element distance, pharmacophore element CA5 / Ligand-pharmacophore element distance, pharmacophore element CA6: Table A4-1; for a(O1, O2, H3) / a(O1, O2, N2) / a(O2, N2, CA2): Table A6-2 pharmacophore angle; for H-bond distance to MASP-2 GLY 656 atom O: GLY 656 O; for van der Waals contact distance, MASP-2 GLY 528 atom CA: Table A2-2
In short: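 Contacts and H-bonds come from partially refined soaked-crystal structures of recombinant human CCP2-SP made in E. coli, solved by molecular replacement against 1Q3X fragments. Where several ligand poses appeared, only one was analysed; listed nonbonded contacts may include possible H-bond pairings.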

[1] = Table A2-7: SER 628 (CB, O, OG)
[2] = Table A5-1 pharmacophore: distance between elements, S2/S1 region
[3] = Table A5-2 pharmacophore distance, S3/S4 region
[4] = Table A7-1, between pharmacophore elements of the bound compound
[5] = Table A7-2, between pharmacophore elements of the bound compound

MASP-2 CCP2-SP, sequence (O00187 445-686): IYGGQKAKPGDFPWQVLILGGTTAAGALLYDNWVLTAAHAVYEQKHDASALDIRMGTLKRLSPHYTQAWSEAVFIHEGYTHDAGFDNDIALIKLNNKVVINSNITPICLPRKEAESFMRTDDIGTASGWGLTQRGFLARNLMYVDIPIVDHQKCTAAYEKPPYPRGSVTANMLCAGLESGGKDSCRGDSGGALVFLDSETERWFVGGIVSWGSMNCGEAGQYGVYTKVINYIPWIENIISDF
MASP-2 CCP2-SP, sequence (O00187 364-432 partner): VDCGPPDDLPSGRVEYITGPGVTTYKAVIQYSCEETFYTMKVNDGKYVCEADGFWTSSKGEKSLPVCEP

Compound: CC(=O)Nc1ccc(CCN[C@H](CCc2ccccc2)C(=O)N[C@@H](C)C(=O)NCc2ccc(N)nc2C)cc1 [compound 1368, (R)-2-((4-Acetamidophenethyl)amino)-N—((S)-1-(((6-amino-2-methylpyridin-3-yl)methyl)amino)-1-oxopropan-2-yl)-4-phenylbutanamide Dihydrochloride]
- H-bond distance to MASP-2 ASP 627 atom OD2 (Table A1 (H-Bonds)): 3.24
- H-bond distance to MASP-2 GLY 656 atom N (Table A1 (H-Bonds)): 3.07
- H-bond distance to MASP-2 PRO 606 atom O (Table A1 (H-Bonds), PRO 606 O): 3.21
- H-bond distance to MASP-2 SER 628 atom O (Table A1 (H-Bonds)): 3.16
- H-bond distance to MASP-2 SER 654 atom O (Table A1 (H-Bonds)): 3.04
- H-bond distance to MASP-2 SER 657 atom O (Table A1 (H-Bonds)): 2.94
- van der Waals contact distance, MASP-2 HIS 483 atom CD2: 3.86
- van der Waals contact distance, MASP-2 HIS 483 atom NE2: 3.67
- van der Waals contact distance, MASP-2 PHE 529 atom CE2 (Table A2-3): 3.79
- van der Waals contact distance, MASP-2 PHE 529 atom CZ (Table A2-3): 3.71
- van der Waals contact distance, MASP-2 PRO 606 atom CB (Table A2-4): 3.6
- van der Waals contact distance, MASP-2 PRO 606 atom O (Table A2-4): 3.75
- van der Waals contact distance, MASP-2 amino acid atom to compound atom [1]: 3.63
- van der Waals contact distance, VAL 653 CG1 to compound atom (Table A2-11): 3.32
- van der Waals contact distance, SER 654 O to compound atom (Table A2-12): 3.85
- van der Waals contact distance, TRP 655 CA to compound atom (Table A2-12): 3.29
- van der Waals contact distance TRP 655 atom CE3 (Table A2-13): 3.52
- van der Waals contact distance TRP 655 atom CZ3 (Table A2-13): 3.87
- Ligand-pharmacophore element distance, pharmacophore element C2: 0
- Ligand-pharmacophore element distance, pharmacophore element C3: 0.16
- Ligand-pharmacophore element distance, pharmacophore element C4: 0
- Ligand-pharmacophore element distance, pharmacophore element C5: 0
- Ligand-pharmacophore element distance, pharmacophore element C6: 0
- Ligand-pharmacophore element distance, pharmacophore element C7: 0
- Ligand-pharmacophore element distance, pharmacophore element CA1: 0.62
- Ligand-pharmacophore element distance, pharmacophore element CA2: 0.95
- Ligand-pharmacophore element distance, pharmacophore element CA3: 0
- Ligand-pharmacophore element distance, pharmacophore element CA4: 0
- Ligand-pharmacophore element distance, pharmacophore element CA5: 2.23
- Ligand-pharmacophore element distance, pharmacophore element CA6: 0
- d(C3,CA1) [2]: 2.86
- d(CA1,N1)2 [2]: 1.39
- d(CA1,O1) [2]: 4.30
- d(CA1,O2) [2]: 8.92
- d(H4,O1) [2]: 4.34
- d(H4,O2) [2]: 8.84
- d(O1,O2) [2]: 7.07
- d(CA5,N2) [3]: 4.47
- d(N2,CA2) [3]: 6.36
- d(O2,H3) [3]: 7.79
- d(O2,N2) [3]: 4.30
- a(C3, CA1, O1) (Table A6-1 pharmacophore angle): 149.59
- a(CA1, O1, O2) (Table A6-1 pharmacophore angle): 151.69
- a(O1, O2, H4) (Table A6-1 pharmacophore angle): 127.75
- a(N1, CA1, O1) b) (Table A6-1 pharmacophore angle, Methyl-amino-pyridine compounds): 173.57
- a(O1, O2, H3): 119.72
- a(O1, O2, N2): 74.03
- a(O2, N2, CA2): 145.05
- Pharmacophore torsion angle a(C3, CA1, O1, H4) [4]: 22.95
- Pharmacophore torsion angle a(H4, O1, O2, H3) [4]: 40.86
- Pharmacophore torsion angle a(H4, O1, O2, N2) [4]: 68.19
- Pharmacophore torsion angle a(N1, CA1, O1, H4) [4]: −2.26
- Pharmacophore torsion angle a(O1, H4, O2, CA1) [4]: −74.89
- Pharmacophore torsion angle a(O1, O2, N2, CA2) [5]: −100.57
- Pharmacophore torsion angle a(O1, O2, N2, CA5) [5]: 124.36

Compound: C[C@H](NC(=O)[C@H]1C[C@H](Cc2ccccc2)CN1)C(=O)NCc1cc(Cl)ccc1-n1cnnn1 [compound 1371, (2R,4S)-4-Benzyl-N—((S)-1-((5-chloro-2-(1H-tetrazol-1-yl)benzyl)amino)-1-oxopropan-2-yl)pyrrolidine-2-carboxamide Hydrochloride]
- H-bond distance to MASP-2 GLY 656 atom N (Table A1 (H-Bonds)): 3.18
- H-bond distance to MASP-2 GLY 656 atom O (Table A1 (H-Bonds)): 2.75
- H-bond distance to MASP-2 SER 654 atom O (Table A1 (H-Bonds)): 2.86
- H-bond distance to MASP-2 SER 657 atom O (Table A1 (H-Bonds)): 2.96
- van der Waals contact distance, MASP-2 HIS 483 atom CD2: 3.55
- van der Waals contact distance, MASP-2 HIS 483 atom NE2: 3.61
- van der Waals contact distance, MASP-2 GLY 528 atom CA: 3.8
- van der Waals contact distance, MASP-2 PHE 529 atom CD2 (Table A2-3): 3.86
- van der Waals contact distance, MASP-2 PHE 529 atom CE2 (Table A2-3): 3.89
- van der Waals contact distance, MASP-2 amino acid atom to compound atom (Table A2-9 second part, ARG 630, AA atoms N, NE, NH1): 3.44
- van der Waals contact distance, SER 654 C to compound atom (Table A2-11): 3.9
- van der Waals contact distance GLY 656 atom C (Table A2-13, MASP-2 GLY 656 C): 3.84
- van der Waals contact distance, MASP-2 amino acid atom to compound atom (Table A2 section before Table A2-8): 3.76
- Ligand-pharmacophore element distance, pharmacophore element C2: 0
- Ligand-pharmacophore element distance, pharmacophore element C3: 0
- Ligand-pharmacophore element distance, pharmacophore element C4: 0
- Ligand-pharmacophore element distance, pharmacophore element C5: 0.48
- Ligand-pharmacophore element distance, pharmacophore element C6: 0
- Ligand-pharmacophore element distance, pharmacophore element C7: 0
- Ligand-pharmacophore element distance, pharmacophore element CA1: 0.58
- Ligand-pharmacophore element distance, pharmacophore element CA2: 0.46
- Ligand-pharmacophore element distance, pharmacophore element CA3: 0
- Ligand-pharmacophore element distance, pharmacophore element CA4: 0
- Ligand-pharmacophore element distance, pharmacophore element CA5: 0
- Ligand-pharmacophore element distance, pharmacophore element CA6: 0
- d(CA1,O1) [2]: 3.46
- d(CA1,O2) [2]: 3.72
- d(H4,O1) [2]: 3.13
- d(H4,O2) [2]: 3.66
- d(O1,O2) [2]: 3.25
- d(N2,CA2) [3]: 5.90
- d(O2,H3) [3]: 1.96
- d(O2,N2) [3]: 2.79
- a(CA1, O1, O2) (Table A6-1 pharmacophore angle): 121.03
- a(O1, O2, H4) (Table A6-1 pharmacophore angle): 123.31
- a(O1, O2, H3): 136.64
- a(O1, O2, N2): 146.93
- a(O2, N2, CA2): 155.86
- Pharmacophore torsion angle a(H4, O1, O2, H3) [4]: −165.12
- Pharmacophore torsion angle a(H4, O1, O2, N2) [4]: −174.11
- Pharmacophore torsion angle a(O1, H4, O2, CA1) [4]: −68.15
- Pharmacophore torsion angle a(O1, O2, N2, CA2) [5]: 136.54

Compound: Cc1nc(N)ccc1CNC(=O)[C@H](C)NC(=O)[C@H]1C[C@H](Cc2ccccc2Br)CN1 [compound 1372, (2R,4S)—N—((S)-1-(((6-Amino-2-methylpyridin-3-yl)methyl)amino)-1-oxopropan-2-yl)-4-(2-bromobenzyl)pyrrolidine-2-carboxamide Di-trifluoroacetate salt]
- H-bond distance to MASP-2 ASP 627 atom OD2 (Table A1 (H-Bonds)): 3.17
- H-bond distance to MASP-2 GLY 656 atom N (Table A1 (H-Bonds)): 3.23
- H-bond distance to MASP-2 GLY 656 atom O (Table A1 (H-Bonds)): 2.81
- H-bond distance to MASP-2 SER 628 atom O (Table A1 (H-Bonds)): 3.18
- H-bond distance to MASP-2 SER 654 atom O (Table A1 (H-Bonds)): 2.97
- H-bond distance to MASP-2 SER 657 atom O (Table A1 (H-Bonds)): 2.87
- van der Waals contact distance, MASP-2 HIS 483 atom CD2: 3.77
- van der Waals contact distance, MASP-2 HIS 483 atom NE2: 3.67
- van der Waals contact distance, MASP-2 GLY 528 atom CA: 3.83
- van der Waals contact distance, MASP-2 TYR 607 atom CD1 (Table A2-4): 3.77
- van der Waals contact distance, MASP-2 amino acid atom to compound atom [1]: 3.68
- van der Waals contact distance, VAL 653 CG1 to compound atom (Table A2-11): 3.32
- van der Waals contact distance, TRP 655 CA to compound atom (Table A2-12): 3.48
- van der Waals contact distance TRP 655 atom CE3 (Table A2-13): 3.54
- van der Waals contact distance TRP 655 atom CZ3 (Table A2-13): 3.48
